Experimental data from PubChem BioAssay AID2060355 (Molecular Pharmacology Branch, DTP, NCI, 2025).

System: 485368-065-R4-J2-PDC spheroids with HUVEC/MSC, viability
Assay: Anticancer human tumor 485368-065-R4-J2-PDC patient-derived pancreatic carcinoma cell line growth inhibition [TAK]
Details: for IC50: curve of first compound; for viability, T/C: stronger effect = lower value
How it was run: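 Drug combinations, each paired with TAK-243 or ipatasertib, were tested on multi-cell spheroids of 60% malignant cells, 25% HUVEC and 15% hMSC. Top concentrations were at or near the clinical Cmax (10 microM if undetermined), decreasing by half-log; viability is given as % test/control.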
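Note: spheroids exposed to compounds for seven days before readout.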
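Throughout, for viability, T/C: 100% = DMSO vehicle control wells.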

`CC(=O)Nc1cccc(-n2c(=O)n(C3CC3)c(=O)c3c(Nc4ccc(I)cc4F)n(C)c(=O)c(C)c32)c1` + CC(C)NCC(C(=O)N1CCN(c2ncnc3c2C(C)CC3O)CC1)c1ccc(Cl)cc1 was tested, and the IC50 (second compound 0.3 µM) was 3.49 nM, the IC50 (second compound 0.949 µM) was 1.61 nM and the IC50 (second compound 3 µM) was 1.23 nM. The IC50 (second compound 9.49 µM) was 0.596 nM, the IC50 (second compound 30 µM) was 0.316 nM and the viability, T/C (second compound 0.3 µM, first compound 94.9 pM) was 89.9%. The viability, T/C (second compound 0.3 µM, first compound 0.0003 µM) was 76.2%, the viability, T/C (second compound 0.3 µM, first compound 0.000949 µM) was 72.8% and the viability, T/C (second compound 0.3 µM, first compound 0.003 µM) was 51.8%. It also gave a viability, T/C (second compound 0.3 µM, first compound 0.00949 µM) of 33.5%, a viability, T/C (second compound 0.3 µM, first compound 0.03 µM) of 20.4% and a viability, T/C (second compound 0.949 µM, first compound 94.9 pM) of 94.2%. The viability, T/C (second compound 0.949 µM, first compound 0.0003 µM) was 92.3%, the viability, T/C (second compound 0.949 µM, first compound 0.000949 µM) was 61.8% and the viability, T/C (second compound 0.949 µM, first compound 0.003 µM) was 34.3%. The viability, T/C (second compound 0.949 µM, first compound 0.00949 µM) was 19.2%, the viability, T/C (second compound 0.949 µM, first compound 0.03 µM) was 12.7% and the viability, T/C (second compound 3 µM, first compound 94.9 pM) was 96.6%. For the same molecule, the viability, T/C (second compound 3 µM, first compound 0.0003 µM) was 88.2%, the viability, T/C (second compound 3 µM, first compound 0.000949 µM) was 58.3% and the viability, T/C (second compound 3 µM, first compound 0.003 µM) was 22%. For the same molecule, the viability, T/C (second compound 3 µM, first compound 0.00949 µM) was 12%, the viability, T/C (second compound 3 µM, first compound 0.03 µM) was 8.82% and the viability, T/C (second compound 9.49 µM, first compound 94.9 pM) was 89.8%. The viability, T/C (second compound 9.49 µM, first compound 0.0003 µM) was 70.1%, the viability, T/C (second compound 9.49 µM, first compound 0.000949 µM) was 36.3% and the viability, T/C (second compound 9.49 µM, first compound 0.003 µM) was 15.8%. For the same molecule, the viability, T/C (second compound 9.49 µM, first compound 0.00949 µM) was 10.2%, the viability, T/C (second compound 9.49 µM, first compound 0.03 µM) was 7.89% and the viability, T/C (second compound 30 µM, first compound 94.9 pM) was 70.6%. For the same molecule, the viability, T/C (second compound 30 µM, first compound 0.0003 µM) was 50%, the viability, T/C (second compound 30 µM, first compound 0.000949 µM) was 31.5% and the viability, T/C (second compound 30 µM, first compound 0.003 µM) was 13.8%. For the same molecule, the viability, T/C (second compound 30 µM, first compound 0.00949 µM) was 10.2% and the viability, T/C (second compound 30 µM, first compound 0.03 µM) was 7.05%.
